# According to patent US6372766B1, “Substituted 2-(2′-pyridyloxy)phenylacetamides, as fungicides and pesticides” (priority 1997, dated 2002):
# System: Puccinia recondita
# Experiment: Action against Puccinia recondita on wheat (wheat leaf rust)
# Format: in vivo
# Conditions: 63 ppm; wheat "Frühgold"; sprayed the day after infection; 7 days; untreated plants 75%
row,Structure (SMILES),infection (extent of rust fungus development on leaves)
1,CNC(=O)/C(=N/OC)c1ccccc1COc1nc(Cl)c(C(F)(F)F)cc1Cl [I-6],no infection
2,"CNC(=O)/C(=N/OC)c1ccccc1COc1ncc(C(F)(F)F)cc1C [I-2, α-anti-methoxyimino-N-methyl-2-(3-methyl-5-trifluoromethyl-2-pyridyloxy)methyl-phenylacetamide]",no infection
3,CNC(=O)/C(=N/OC)c1ccccc1COc1ncc(C(F)F)cc1Cl [I-8],no infection
4,CNC(=O)/C(=N/OC)c1ccccc1COc1nc(Cl)ccc1C(F)(F)F [I-3],no infection
5,"CNC(=O)/C(=N/OC)c1ccccc1COc1ncc(C(F)(F)F)cc1F [I-1, α-anti-methoxyimino-N-methyl-2-(3-fluoro-5-trifluoromethyl-2-pyridyloxy)methylphenyl-acetamide]",no infection

# System: Nephotettix cincticeps
# Experiment: Action against Nephotettix cincticeps (green rice leafhopper), contact action
# Format: in vivo
# Conditions: treated filter paper dishes, adult leafhoppers, mortality after 24 hours
# From the text: The active compounds were formulated
# a. as a 0.1% solution in acetone or
# b. as a 10% emulsion in a mixture of 70% by weight of cyclohexanone, 20% by weight of Nekanil® LN (Lutensol® AP6, wetting agent having emulsifying and dispersing action based on ethoxylated alkylphenols) and 10% by weight of Wettol® EM (nonionic emulsifier based on ethoxylated castor oil)
# and diluted in the case of a. with acetone and in the case of b. with water to give the desired concentration.
# After the experiments had ended, in each case the lowest concentration was determined at which the compounds still caused an 80 to 100% inhibition or mortality in comparison with untreated control experiments (critical or minimal concentration).
# Filter paper dishes (Ø 9 cm) were treated with 1 ml of aqueous preparations of active compounds and subsequently populated with five adult leafhoppers. After 24 hours, the mortality was determined.
row,Structure (SMILES),critical concentration (lowest concentration still causing 80 to 100% inhibition or mortality)
1,"CNC(=O)/C(=N/OC)c1ccccc1COc1ncc(C(F)(F)F)cc1C [I-2, α-anti-methoxyimino-N-methyl-2-(3-methyl-5-trifluoromethyl-2-pyridyloxy)methyl-phenylacetamide]",0.2 mg
